Values quoted from earlier work, collected in patent US6951654B2, “Intravaginal drug delivery devices for the administration of an antimicrobial agent” (Galen (Chemicals) Limited, priority 2001, dated 2005).

Conditions: at 20° C.; Merck Index

Compound: Cc1ncc([N+](=O)[O-])n1CCO [metronidazole, 2-methyl-5-nitro-1H-imidazole-1-ethanol]
- solubility in water: 1 g per 100 ml
